Laboratory results published in ChEMBL document CHEMBL1155980, “Prenyloxyphenylpropanoids as a novel class of anticonvulsive agents” (2009).
Calls of active or inactive are those of the source. The rule behind the calls is not given here.

Tests used:
Mus musculus [1] = experiment: Anticonvulsant activity in mouse at 300 mg/kg, ip after 15 mins by MES test; type: functional, organism-based; parameters: dose 300 mg/kg
Mus musculus [2] = experiment: Anticonvulsant activity in mouse at 300 mg/kg, ip after 120 mins by MES test; type: functional, organism-based; parameters: dose 300 mg/kg
Mus musculus [3] = experiment: Anticonvulsant activity in mouse at 300 mg/kg, ip after 30 mins by MES test; type: functional, organism-based; parameters: dose 300 mg/kg
Mus musculus [4] = experiment: Anticonvulsant activity in mouse at 300 mg/kg, ip after 5 mins by MES test; type: functional, organism-based; parameters: dose 300 mg/kg
Mus musculus [5] = experiment: Anticonvulsant activity in mouse at 300 mg/kg, ip after 60 mins by MES test; type: functional, organism-based; parameters: dose 300 mg/kg
Mus musculus [6] = species: Mus musculus; experiment: Anticonvulsant activity in mouse after 30 mins by MES test; type: functional; details: 0.5 h
Mus musculus [7] = species: Mus musculus; experiment: Anticonvulsant activity in mouse after 60 mins by MES test; type: functional; details: 1 h
Mus musculus [8] = species: Mus musculus; experiment: Anticonvulsant activity in mouse after 15 mins by MES test; type: functional; details: 0.25 h
Mus musculus [9] = species: Mus musculus; experiment: Anticonvulsant activity in mouse after 5 mins by MES test; type: functional
Thoracic aorta = experiment: Muscle relaxant activity in rat thoracic aorta assessed as inhibition of KCl-induced contraction at 100 uM; type: functional

Row | SMILES | Activity (Mus musculus [1]) | Activity (Mus musculus [2]) | Activity (Mus musculus [3]) | Activity (Mus musculus [4]) | Activity (Mus musculus [5]) | ED50 (Mus musculus [6]) | ED50 (Mus musculus [7]) | ED50 (Mus musculus [8]) | ED50 (Mus musculus [9]) | inhibition at 100 µM (Thoracic aorta)
1 | CC(C)=CCC/C(C)=C/COc1ccc(/C=C/C(=O)O)cc1 | inactive | inactive | inactive | inactive | inactive |  |  |  |  | 
2 | CC(C)=CCOc1ccc(CCC(=O)O)cc1 | inactive | inactive | inactive | inactive | inactive |  |  |  |  | 
3 | CC(=O)c1ccc(OC/C=C(\C)CCC=C(C)C)cc1O | inactive | inactive | inactive | inactive | inactive |  |  |  |  | 
4 | COc1c(OCC=C(C)C)ccc2ccc(=O)oc12 | inactive | inactive | inactive | inactive | inactive |  |  |  |  | 
5 | COc1c(OC/C=C(\C)CCC=C(C)C)ccc2ccc(=O)oc12 | inactive | inactive | inactive |  | inactive |  |  |  |  | 
6 | CC(C)=CCOc1ccc(C(=O)/C=C/c2ccccc2)c(O)c1 | inactive | inactive | inactive | inactive | inactive |  |  |  |  | 
7 | COc1cc(/C=C/C(=O)O)ccc1OC/C=C(\C)CCC=C(C)C | Active | inactive | Active |  |  | 224 mg/kg | > 350 mg/kg | 224 mg/kg | 225 mg/kg | 
8 | COc1cc(C(=O)O)ccc1OCC=C(C)C | inactive | inactive | inactive | inactive | inactive |  |  |  |  | 
9 | COc1cc(C(=O)O)ccc1OC/C=C(\C)CCC=C(C)C | inactive | inactive | inactive | inactive | inactive |  |  |  |  | 
10 | CC(C)=CCOc1ccc(C(=O)/C=C/c2ccc(O)cc2)c(O)c1 | inactive | inactive | inactive | inactive | inactive |  |  |  |  | 
11 | CC(C)=CCC/C(C)=C/COc1ccc2ccc(=O)oc2c1 | inactive |  | inactive | inactive | inactive |  |  |  |  | 
12 | COc1cc(/C=C/C(=O)O)ccc1OCC=C(C)C | inactive | inactive | inactive | inactive | inactive |  |  |  |  | 
13 | CC(C)=CCC/C(C)=C/COc1ccc(C(=O)/C=C/c2ccc(O)cc2)c(O)c1 | inactive | inactive | inactive | inactive | inactive |  |  |  |  | 
14 | CC(C)=CCOc1ccc2ccc(=O)oc2c1O |  | inactive | inactive |  | inactive |  |  |  |  | 
15 | CC(=O)c1ccc(OCC=C(C)C)cc1O | inactive | inactive | inactive | inactive | inactive |  |  |  |  | 
16 | CC(C)=CCOc1ccc2ccc(=O)oc2c1 [7-PRENYLOXYCOUMARIN] | Active | inactive | Active | Active |  | 221 mg/kg | > 350 mg/kg | 238 mg/kg | > 350 mg/kg | 80%
17 | CC(C)=CCOc1ccc(/C=C/C(=O)O)cc1 | Active | inactive |  | Active |  | 312 mg/kg | > 350 mg/kg | 262 mg/kg | 228 mg/kg | 
